What was measured:
cells in Steps 3-6 = assay: Modified differentiation protocol (Steps 3-6): cell survival and marker-positive populations; type: cell-based, human; conditions: for cell survival: Steps 3-5
Description: FIG. 15A is a schematic illustration of the protocol.
One challenge for the stem cell field has been generating a sufficient quantity of SC-β cells that can be useful for drug screening, disease modeling, or therapeutic use. For example, hES cells are technically difficult to culture, are vulnerable to apoptosis upon cellular detachment and dissociation, undergo massive cell death particularly after complete dissociation, and have low cloning efficiency. (Watanabe, K. et al., Nature Biotechnology 25, 681-686 (2007)). As a result, the quantity of viable SC-β cells yielded may be low. By modify the protocol between Steps 3 and 6 in the manner shown in FIG. 15A, more pure NKX6.1+ endocrine clusters can be generated (FIG. 15B) leading to more SC-β cells that can be therapeutically useful.
In Steps 3-5, for instance, cell survival can be improved by adding a rho-associated protein kinase inhibitor, or a Rock inhibitor. It is believed that the addition of a Rock inhibitor enhances survival of ES cells by preventing dissociation-induced apoptosis thus increasing their cloning efficiency. (Watanabe et al.) Examples of Rock inhibitors include, but are not limited to, Y-27632, Fasudil/HA1077, and H-1152.
In addition to treating the cells with a Rocki inhibitor, the cells in Steps 3-4 can be treated with ActivinA alone or in combination with Nicotinamide. […] Since SOX2 and NKX6-1 are mutually exclusive (FIG. 15E), down-regulation of SOX2 results in the up-regulation of NKX6-1, a marker for a mature pancreatic cell.
In Steps 5-6, cell survival can further be enhanced by treating cells with staurosporine. Staurosporine is known to be an activator of neuronal, glial, and stem cell-like neurosphere differentiation and is also thought to induce apoptosis. (Schumacher, et al., Mol. Cell. Neurosci. 2003; 23(4): 669-680).
Finally, cell survival can further be enhanced by treating cells with a culture medium containing Alk5i, T3 in combination with XXI, a γ-secretase inhibitor that improves β cell maturation.

SC-β cells [1] = assay: GSIS of SC-β cells after additional factors in the last-step (Stage 6) media; type: cell-based, human; conditions: factor added to CMRL media containing Alk5 inhibitor and T3 hormone; versus CMRL only, CMRL+Alk5i+T3, S3+Alk5i+T3
Description: To induce the in vitro maturation of at least some of the Pdx1-positive, NKX6-1-positive, insulin-positive endocrine cells into SC-β cells, the Pdx1-positive, NKX6-1-positive, insulin-positive endocrine cells are maintained in a suitable culture medium for a sufficient period of time. […] Adding additional factors to the CMRL media at the last step of differentiation (Stage 6) (FIG. 14A), however, was also found to generate a better glucose stimulated insulin secretion (GSIS) response by SC-β cells as measured by either stimulation index between high and low glucose challenges or by the amount of insulin released. Such additional factors may include, but are not limited to, Sant1, XXI, and SSP. The stimulation index, as calculated by the ratio of insulin secreted in high glucose (15 mM) to low glucose (2.5 mM), was greater for the SC-β cells maintained in a CMRL media containing Alk5 inhibitor, T3 hormone and either Sant1, XXI or SSP than those SC-β cells maintained in only CMRL media, CMRL media containing Alk5 inhibitor and T3 hormone, or S3 media containing Alk5 inhibitor and T3 hormone (FIG. 14B). Furthermore, the amount of insulin secreted was greater for the SC-β cells maintained in a CMRL media containing Alk5 inhibitor, T3 hormone and either Sant1, XXI or SSP than those SC-β cells maintained in only CMRL media, CMRL media containing Alk5 inhibitor and T3 hormone, or S3 media containing Alk5 inhibitor and T3 hormone (FIG. 14C).
Alternatively, Days 21-35: CMRLS+10 μM Alk5i II+1 μM T3+Sant1.
Alternatively, Days 21-35: CMRLS+10 μM Alk5i II+1 μM T3+XXI.
Alternatively, Days 21-35: CMRLS+10 μM Alk5i II+1 μM T3+SSP.

SC-β cells [2] = assay: Anti-diabetic drug treatment of plated SC-β cells, secreted human insulin ELISA; type: cell-based; conditions: 2 and 20 mM glucose
Protocol: FIG. 16A is a schematic illustration of the utility of SC-β cells for treating diabetes or screening drugs to improve function or replication. FIG. 16B is a table listing diabetic drugs investigated and their general therapeutic category. FIG. 16C is a graph showing ELISA measurements of secreted human insulin from plated SC-β cells treated with the indicated drugs in 2 and 20 mM glucose. Indicated p values compare the insulin value in 20 mM glucose between the drug and the control. FIG. 16D is an immunofluorescence image of dispersed and plated SC-β cells stained with DAPI (blue), C-peptide (green), and Ki67 (red) without treatment. FIG. 16E is an immunofluorescence image of dispersed and plated SC-β cells stained with DAPI (blue), C-peptide (green), and Ki67 (red) treated with prolactin for 48 hours. […] FIG. 16G is a graph illustrating fasting blood glucose measurements of Akita mice transplanted with SC-β cells (n=6) or PH cells (n=6). *p<0.05 comparing the two cell groups on the same day. FIG. 16H is a graph illustrating blood glucose measurements from progressively diabetic Akita mice transplanted with SC-β cells or PH cells. Measurements were taken before (white bars) and 20 min after (black bars) a glucose injection of mice transplanted 2 weeks prior. Glucose measurements were saturated at 550 mg/dL. *p<0.05 comparing the two cell groups at the same time post glucose injection. FIG. 16I is a graph showing ELISA measurements of human insulin from the serum of Akita mice 20 min after a glucose injection. Mice were challenged with glucose 2 weeks post transplantation. *p<0.05 comparing the two cell groups. Scale bar-50 μm.
The inventors first tested whether SC-β cells could respond to existing anti-diabetic drugs from several different classes (FIG. 16B). LY2608204 is glucokinase activator in clinical trials while liraglutide, tolbutamide, and nateglinide are examples of GLP-1 agonists and secretagogues (sulfonylureas and meglitinides), respectively, that have been used clinically (Matschinsky, 2009; Modi, 2007; Vetere et al., 2014).

SC-β cells [3] = assay: β cell replication: C-peptide and Ki67 staining of plated SC-β cells; type: cell-based, human; conditions: SC-β cells treated with prolactin for 48 hours
Protocol: FIG. 16A is a schematic illustration of the utility of SC-β cells for treating diabetes or screening drugs to improve function or replication. FIG. 16B is a table listing diabetic drugs investigated and their general therapeutic category. FIG. 16C is a graph showing ELISA measurements of secreted human insulin from plated SC-β cells treated with the indicated drugs in 2 and 20 mM glucose. Indicated p values compare the insulin value in 20 mM glucose between the drug and the control. FIG. 16D is an immunofluorescence image of dispersed and plated SC-β cells stained with DAPI (blue), C-peptide (green), and Ki67 (red) without treatment. FIG. 16E is an immunofluorescence image of dispersed and plated SC-β cells stained with DAPI (blue), C-peptide (green), and Ki67 (red) treated with prolactin for 48 hours. […] FIG. 16G is a graph illustrating fasting blood glucose measurements of Akita mice transplanted with SC-β cells (n=6) or PH cells (n=6). *p<0.05 comparing the two cell groups on the same day. […]
Cells were dispersed and plated onto 96 well plates. […] The percentage of target cell-types was quantified using the Array Scan Cellomics high-content screening system. Here 30 images were acquired per well and quantified. Cells labeled by antibody staining and total cell number (based on DAPI nuclei staining) were quantified to obtain percentages of target cell types.

## C[C@H](NC(=O)Cc1cc(F)cc(F)c1)C(=O)N[C@H]1N=C(c2ccccc2)c2ccccc2N(C)C1=O [XXI]
Cells in Steps 3-6; added to medium with Alk5i and T3 at Steps 5 and 6
  NeuroD1+ population: increase the NeuroD1+ population
SC-β cells [1]
  amount of insulin secreted: greater
  stimulation index, ratio of insulin secreted in high glucose (15 mM) to low glucose (2.5 mM): greater

## NC(=O)c1cccnc1 [Nicotinamide]
Cells in Steps 3-6
  cell survival: improve cell survival

## CCCCNC(=O)NS(=O)(=O)c1ccc(C)cc1 [tolbutamide]
SC-β cells [2]
  insulin secretion in vitro following a glucose challenge: increasing insulin secretion

## CC(C)[C@H]1CC[C@H](C(=O)N[C@H](Cc2ccccc2)C(=O)O)CC1 [nateglinide]
SC-β cells [2]
  insulin secretion in vitro following a glucose challenge: increasing insulin secretion

## Cc1nn(-c2ccccc2)c(C)c1/C=N/N1CCN(Cc2ccccc2)CC1 [Sant1]
SC-β cells [1]
  amount of insulin secreted: greater
  stimulation index, ratio of insulin secreted in high glucose (15 mM) to low glucose (2.5 mM): greater

## O=C(Nc1ncc(SCCN2CCCC2)s1)[C@]1(c2ccc(S(=O)(=O)C3CC3)cc2)C[C@H]1C1CCCCC1 [LY2608204]
SC-β cells [2]
  insulin secretion in vitro following a glucose challenge: increasing insulin secretion

## CN[C@@H]1C[C@H]2O[C@@](C)([C@@H]1OC)n1c3ccccc3c3c4c(c5c6ccccc6n2c5c31)C(=O)NC4 [staurosporine]
Cells in Steps 3-6; Steps 5-6
  percentage of ChromograninA: increasing the percentage of ChromograninA
  percentage of NKX6-1/C-peptide+ cells: increasing the percentage of NKX6-1.C-peptide+ cells

B1: Activin A: growth factor from the TGF-β superfamily (protein, UniProt P08476 311-426, looked up)
Inhibin beta A chain: GLECDGKVNICCKKQFFVSFKDIGWNDWIIAPSGYHANYCEGECPSHIAGTSGSSLSFHSTVINHYRMRGHSPFANLKSCCVPTKLRPMSMLYYDDGQNIIKKDIQNMIVEECGCS
modifications: Inhibin beta A chain
notes: growth factor from the TGF-β superfamily
Cells in Steps 3-6
  cell survival: improve cell survival

B2: prolactin: hormone tested for β cell replication (protein, UniProt P01236 29-227, looked up)
Prolactin: LPICPGGAARCQVTLRDLFDRAVVLSHYIHNLSSEMFSEFDKRYTHGRGFITKAINSCHTSSLATPEDKEQAQQMNQKDFLSLIVSILRSWNEPLYHLVTEVRGMQEAPEAILSKAVEIEEQTKRLLEGMELIVSQVHPETKENEIYPVWSGLPSLQMADEESRLSAYYNLLHCLRRDSHKIDNYLKLLKCRIIHNNNC
SC-β cells [3]
  Ki67+/C-peptide+ cells: 0.39±0.08%
